Data reported in the kinase profiling compilation of Christmann-Franck et al. (2016).

Columns and labels:
Test in all cases: radiometric filter-binding kinase assay, Kinase HotSpot
Settings in all cases: compound 0.5 µM; ATP 10 µM
AKT1 (human) = AKT1 (human) (UniProt P31749)
AKT3 (human) = AKT3 (human) (UniProt Q9Y243)
BRAF (human) = BRAF (human) (UniProt P15056)
BRSK2 (human) = BRSK2 (human) (UniProt Q8IWQ3)
CAMK2D (human) = CAMK2D (human) (UniProt Q13557)
CDC42BPA (human) = CDC42BPA (human) (UniProt Q5VT25)
CDK1 CCNB1 (human) = CDK1 CCNB1 (human) (UniProt P06493+P14635)
CLK4 (human) = CLK4 (human) (UniProt Q9HAZ1)
CSNK1D (human) = CSNK1D (human) (UniProt P48730)
Chain of CSNK1D (human) (P48730 whole entry, looked up): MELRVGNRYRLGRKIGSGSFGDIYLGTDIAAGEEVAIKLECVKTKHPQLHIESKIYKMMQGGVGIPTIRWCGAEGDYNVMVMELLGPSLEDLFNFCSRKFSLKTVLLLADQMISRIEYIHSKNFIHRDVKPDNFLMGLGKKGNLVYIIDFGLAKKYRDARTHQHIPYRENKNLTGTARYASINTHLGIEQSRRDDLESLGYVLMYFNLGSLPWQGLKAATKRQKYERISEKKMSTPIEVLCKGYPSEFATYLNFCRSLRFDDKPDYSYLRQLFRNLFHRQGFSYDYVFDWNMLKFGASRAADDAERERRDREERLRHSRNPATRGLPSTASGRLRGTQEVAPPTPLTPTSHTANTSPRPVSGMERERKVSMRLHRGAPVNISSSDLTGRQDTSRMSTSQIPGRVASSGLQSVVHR

DAPK2 (human) = DAPK2 (human) (UniProt Q9UIK4)
Chain of DAPK2 (human) (Q9UIK4 whole entry, looked up): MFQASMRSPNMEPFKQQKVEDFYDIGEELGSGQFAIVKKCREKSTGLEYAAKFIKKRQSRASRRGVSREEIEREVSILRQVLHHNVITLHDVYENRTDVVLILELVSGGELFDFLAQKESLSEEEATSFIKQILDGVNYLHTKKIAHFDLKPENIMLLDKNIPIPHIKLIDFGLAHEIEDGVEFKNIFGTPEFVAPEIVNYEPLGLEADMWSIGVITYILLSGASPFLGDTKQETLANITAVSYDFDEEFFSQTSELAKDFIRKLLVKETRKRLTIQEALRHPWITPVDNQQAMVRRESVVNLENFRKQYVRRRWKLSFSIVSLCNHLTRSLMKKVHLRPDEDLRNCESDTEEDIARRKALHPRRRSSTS

EPHA3 (human) = EPHA3 (human) (UniProt P29320)
EPHA4 (human) = EPHA4 (human) (UniProt P54764)
EPHA6 (human) = EPHA6 (human) (UniProt Q9UF33)
FGFR1 (human) = FGFR1 (human) (UniProt P11362)
[1] = system: FLT4 (human), P35916 [Q890H]
GSG2 (human) = GSG2 (human) (UniProt Q8TF76)
HIPK1 (human) = HIPK1 (human) (UniProt Q86Z02)
Chain of HIPK1 (human) (Q86Z02 whole entry, looked up): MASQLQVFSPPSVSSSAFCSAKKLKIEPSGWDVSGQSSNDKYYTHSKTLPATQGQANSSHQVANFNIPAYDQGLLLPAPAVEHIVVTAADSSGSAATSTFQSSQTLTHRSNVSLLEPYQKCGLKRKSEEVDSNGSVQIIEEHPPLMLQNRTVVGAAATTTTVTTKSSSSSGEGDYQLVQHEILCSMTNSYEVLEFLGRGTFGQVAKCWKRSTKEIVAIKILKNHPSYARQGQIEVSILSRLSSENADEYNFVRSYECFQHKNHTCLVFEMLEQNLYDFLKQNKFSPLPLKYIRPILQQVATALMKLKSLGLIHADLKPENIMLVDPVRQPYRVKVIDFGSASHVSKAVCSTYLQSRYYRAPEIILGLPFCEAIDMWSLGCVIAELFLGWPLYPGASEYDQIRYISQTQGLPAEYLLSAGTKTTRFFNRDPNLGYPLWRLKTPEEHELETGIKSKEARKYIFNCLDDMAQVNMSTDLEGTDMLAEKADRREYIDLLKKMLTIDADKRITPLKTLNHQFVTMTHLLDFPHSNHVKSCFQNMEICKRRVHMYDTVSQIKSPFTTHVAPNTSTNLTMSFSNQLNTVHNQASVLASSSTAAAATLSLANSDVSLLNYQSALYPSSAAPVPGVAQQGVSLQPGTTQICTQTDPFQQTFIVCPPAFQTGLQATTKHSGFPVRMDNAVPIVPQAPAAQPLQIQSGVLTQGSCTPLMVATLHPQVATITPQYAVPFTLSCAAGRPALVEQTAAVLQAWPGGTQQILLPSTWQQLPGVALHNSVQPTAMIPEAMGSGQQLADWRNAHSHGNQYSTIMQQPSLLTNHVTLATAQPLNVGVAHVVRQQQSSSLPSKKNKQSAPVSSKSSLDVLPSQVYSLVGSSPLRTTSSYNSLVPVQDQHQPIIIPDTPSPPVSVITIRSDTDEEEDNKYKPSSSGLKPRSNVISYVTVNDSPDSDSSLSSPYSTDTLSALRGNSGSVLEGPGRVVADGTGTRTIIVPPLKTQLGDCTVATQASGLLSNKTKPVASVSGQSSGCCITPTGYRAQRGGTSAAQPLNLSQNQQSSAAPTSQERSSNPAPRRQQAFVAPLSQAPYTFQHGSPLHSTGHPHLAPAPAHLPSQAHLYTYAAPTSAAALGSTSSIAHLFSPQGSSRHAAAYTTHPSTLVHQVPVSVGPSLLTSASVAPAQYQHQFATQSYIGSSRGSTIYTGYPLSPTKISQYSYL

IGF1R (human) = IGF1R (human) (UniProt P08069)
ITK (human) = ITK (human) (UniProt Q08881)
[2] = biological target: JAK1 JH1 catalytic (human) (UniProt P23458)
MAP2K1 (human) = MAP2K1 (human) (UniProt Q02750)
MAP3K10 (human) = MAP3K10 (human) (UniProt Q02779)
MAP3K11 (human) = MAP3K11 (human) (UniProt Q16584)
Chain of MAP3K11 (human) (Q16584 whole entry, looked up): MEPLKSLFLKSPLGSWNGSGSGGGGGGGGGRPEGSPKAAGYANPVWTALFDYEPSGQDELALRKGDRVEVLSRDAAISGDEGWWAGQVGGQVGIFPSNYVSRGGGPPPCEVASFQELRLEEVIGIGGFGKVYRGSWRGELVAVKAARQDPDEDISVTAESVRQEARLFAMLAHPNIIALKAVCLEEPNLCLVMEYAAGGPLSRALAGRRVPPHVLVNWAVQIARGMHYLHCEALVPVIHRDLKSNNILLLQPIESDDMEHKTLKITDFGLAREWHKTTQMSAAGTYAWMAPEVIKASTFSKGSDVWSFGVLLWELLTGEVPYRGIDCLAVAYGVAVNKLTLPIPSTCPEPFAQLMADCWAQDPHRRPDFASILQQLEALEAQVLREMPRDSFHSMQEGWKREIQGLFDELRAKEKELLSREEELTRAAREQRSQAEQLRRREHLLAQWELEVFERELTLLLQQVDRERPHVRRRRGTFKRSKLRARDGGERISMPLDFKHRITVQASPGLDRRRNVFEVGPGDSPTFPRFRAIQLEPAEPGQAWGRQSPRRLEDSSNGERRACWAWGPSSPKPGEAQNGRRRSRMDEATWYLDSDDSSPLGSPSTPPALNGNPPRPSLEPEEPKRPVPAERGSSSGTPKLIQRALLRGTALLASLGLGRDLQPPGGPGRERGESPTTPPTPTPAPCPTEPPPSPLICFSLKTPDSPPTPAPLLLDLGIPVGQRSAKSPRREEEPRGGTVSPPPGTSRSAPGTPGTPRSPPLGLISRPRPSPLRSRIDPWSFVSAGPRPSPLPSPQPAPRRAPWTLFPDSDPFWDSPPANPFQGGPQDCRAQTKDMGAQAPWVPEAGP

MAPK11 (human) = MAPK11 (human) (UniProt Q15759)
Chain of MAPK11 (human) (Q15759 whole entry, looked up): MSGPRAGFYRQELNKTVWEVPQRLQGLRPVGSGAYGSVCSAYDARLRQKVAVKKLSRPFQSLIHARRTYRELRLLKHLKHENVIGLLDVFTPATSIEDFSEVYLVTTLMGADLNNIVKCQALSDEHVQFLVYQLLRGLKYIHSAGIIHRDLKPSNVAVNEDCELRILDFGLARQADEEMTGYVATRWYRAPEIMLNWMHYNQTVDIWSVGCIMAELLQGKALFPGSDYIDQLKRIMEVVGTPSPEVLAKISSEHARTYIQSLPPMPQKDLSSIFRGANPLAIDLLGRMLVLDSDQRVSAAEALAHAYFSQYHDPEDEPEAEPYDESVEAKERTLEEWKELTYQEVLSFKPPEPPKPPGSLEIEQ

MAPK8 (human) = MAPK8 (human) (UniProt P45983)
Chain of MAPK8 (human) (P45983 whole entry, looked up): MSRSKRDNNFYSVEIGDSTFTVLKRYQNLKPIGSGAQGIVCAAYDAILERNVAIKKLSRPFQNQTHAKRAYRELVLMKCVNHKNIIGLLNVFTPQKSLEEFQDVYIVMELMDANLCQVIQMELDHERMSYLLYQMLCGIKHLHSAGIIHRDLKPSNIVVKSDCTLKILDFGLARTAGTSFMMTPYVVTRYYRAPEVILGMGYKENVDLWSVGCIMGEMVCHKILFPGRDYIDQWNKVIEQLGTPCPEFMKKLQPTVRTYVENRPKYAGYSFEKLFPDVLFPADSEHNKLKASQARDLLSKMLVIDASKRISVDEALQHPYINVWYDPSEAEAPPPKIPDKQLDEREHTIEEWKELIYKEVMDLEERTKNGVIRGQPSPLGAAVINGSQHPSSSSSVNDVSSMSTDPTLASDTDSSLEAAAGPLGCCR

MAPKAPK2 (human) = MAPKAPK2 (human) (UniProt P49137)
Chain of MAPKAPK2 (human) (P49137 whole entry, looked up): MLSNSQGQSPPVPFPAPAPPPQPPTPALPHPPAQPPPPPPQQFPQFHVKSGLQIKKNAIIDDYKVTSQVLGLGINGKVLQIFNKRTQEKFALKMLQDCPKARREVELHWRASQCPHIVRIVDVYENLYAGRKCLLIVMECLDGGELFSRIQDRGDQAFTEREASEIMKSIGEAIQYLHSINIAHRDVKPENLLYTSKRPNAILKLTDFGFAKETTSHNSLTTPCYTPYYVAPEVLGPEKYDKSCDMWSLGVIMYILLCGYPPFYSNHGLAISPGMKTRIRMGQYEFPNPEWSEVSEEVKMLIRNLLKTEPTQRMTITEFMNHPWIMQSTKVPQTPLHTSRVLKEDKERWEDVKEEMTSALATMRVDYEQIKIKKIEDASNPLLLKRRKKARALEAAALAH

MAPKAPK5 (human) = MAPKAPK5 (human) (UniProt Q8IW41)
MARK1 (human) = MARK1 (human) (UniProt Q9P0L2)
MINK1 (human) = MINK1 (human) (UniProt Q8N4C8)
NEK9 (human) = NEK9 (human) (UniProt Q8TD19)
Chain of NEK9 (human) (Q8TD19 whole entry, looked up): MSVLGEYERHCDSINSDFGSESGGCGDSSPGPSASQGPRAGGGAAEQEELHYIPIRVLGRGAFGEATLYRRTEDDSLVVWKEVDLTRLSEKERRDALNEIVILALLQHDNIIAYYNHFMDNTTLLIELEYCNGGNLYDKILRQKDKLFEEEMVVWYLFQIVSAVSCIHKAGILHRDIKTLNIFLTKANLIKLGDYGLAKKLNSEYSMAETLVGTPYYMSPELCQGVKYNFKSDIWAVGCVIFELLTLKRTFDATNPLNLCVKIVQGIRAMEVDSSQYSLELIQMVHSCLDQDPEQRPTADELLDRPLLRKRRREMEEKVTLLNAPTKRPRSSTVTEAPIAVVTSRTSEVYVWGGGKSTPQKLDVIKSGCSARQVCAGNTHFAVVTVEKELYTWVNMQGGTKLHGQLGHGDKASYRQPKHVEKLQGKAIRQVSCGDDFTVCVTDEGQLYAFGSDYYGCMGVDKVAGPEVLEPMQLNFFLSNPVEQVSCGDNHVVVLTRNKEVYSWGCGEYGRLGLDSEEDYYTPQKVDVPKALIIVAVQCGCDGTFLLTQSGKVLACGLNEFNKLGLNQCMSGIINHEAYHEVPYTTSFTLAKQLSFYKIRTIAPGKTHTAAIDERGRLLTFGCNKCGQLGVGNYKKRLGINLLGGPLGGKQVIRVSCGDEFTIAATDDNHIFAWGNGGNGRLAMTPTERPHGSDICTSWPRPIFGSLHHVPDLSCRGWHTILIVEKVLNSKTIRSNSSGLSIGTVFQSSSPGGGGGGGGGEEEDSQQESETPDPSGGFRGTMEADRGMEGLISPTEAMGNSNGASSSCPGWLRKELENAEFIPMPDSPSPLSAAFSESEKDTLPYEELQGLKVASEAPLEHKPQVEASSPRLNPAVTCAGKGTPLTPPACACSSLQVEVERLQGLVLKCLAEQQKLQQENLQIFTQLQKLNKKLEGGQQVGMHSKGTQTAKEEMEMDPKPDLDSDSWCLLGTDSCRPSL

PAK1 (human) = PAK1 (human) (UniProt Q13153)
PDPK1 (human) = PDPK1 (human) (UniProt O15530)
PHKG1 (human) = PHKG1 (human) (UniProt Q16816)
PKN2 (human) = PKN2 (human) (UniProt Q16513)
RPS6KA5 KD2 (human) = RPS6KA5 KD2 (human) (UniProt O75582)
SRC (human) = SRC (human) (UniProt P12931)
STK38 (human) = STK38 (human) (UniProt Q15208)
TXK (human) = TXK (human) (UniProt P42681)
ULK3 (human) = ULK3 (human) (UniProt Q6PHR2)
CDK2 CCNA2 (human) = CDK2 CCNA2 (human) (UniProt P24941+P20248)
INSR (human) = INSR (human) (UniProt P06213)

Compound	residual activity (AKT1 (human))	residual activity (AKT3 (human))	residual activity (BRAF (human))	residual activity (BRSK2 (human))	residual activity (CAMK2D (human))	residual activity (CDC42BPA (human))	residual activity (CDK1 CCNB1 (human))	residual activity (CLK4 (human))	residual activity (CSNK1D (human))	residual activity (DAPK2 (human))	residual activity (EPHA3 (human))	residual activity (EPHA4 (human))	residual activity (FGFR1 (human))	residual activity [1]	residual activity (GSG2 (human))	residual activity (HIPK1 (human))	residual activity (IGF1R (human))	residual activity (ITK (human))	residual activity [2]	residual activity (MAP2K1 (human))	also measured
COc1ccc2c(c1)/C(=C/c1cnc[nH]1)C(O)=N2	100%	101%	98.4%	61.7%	78.8%	98.5%	35.9%	72.6%	93.6%	97.3%	93.3%	98.2%	73.2%	66.4%	72.2%	98.9%	94.4%	94%	83.8%	94.8%	residual activity (EPHA6 (human)): 91.3%; residual activity (MAP3K10 (human)): 92.9%; residual activity (MAP3K11 (human)): 61.6%; residual activity (MAPK11 (human)): 103%; residual activity (MAPK8 (human)): 95.9%; residual activity (MAPKAPK2 (human)): 99.4%; residual activity (MAPKAPK5 (human)): 95.2%; residual activity (MARK1 (human)): 50.4%; residual activity (MINK1 (human)): 57.9%; residual activity (NEK9 (human)): 83.2%; residual activity (PAK1 (human)): 97.8%; residual activity (PDPK1 (human)): 97.8%; residual activity (PHKG1 (human)): 53.8%; residual activity (PKN2 (human)): 90.8%; residual activity (RPS6KA5 KD2 (human)): 89.2%; residual activity (SRC (human)): 92.1%; residual activity (STK38 (human)): 86.2%; residual activity (TXK (human)): 93.5%; residual activity (ULK3 (human)): 67.9%
CN(C)CCCn1cc(C2=C(c3c[nH]c4ccccc34)C(=O)NC2=O)c2ccccc21	93.5%	31.5%	103%	55.6%	38.7%	97.1%	92%	44.8%	97.6%	105%	93%	88.2%	74.1%	30.6%	93.6%	96.6%	91.7%	102%	88.7%	83.6%	residual activity (CDK2 CCNA2 (human)): 85.2%; residual activity (INSR (human)): 88.9%; residual activity (MAP3K10 (human)): 81.8%; residual activity (MAP3K11 (human)): 61%; residual activity (MAPK11 (human)): 96.1%; residual activity (MAPK8 (human)): 90.2%; residual activity (MAPKAPK2 (human)): 85.4%; residual activity (MAPKAPK5 (human)): 93.7%; residual activity (MARK1 (human)): 84.1%; residual activity (MINK1 (human)): 92.1%; residual activity (NEK9 (human)): 100%; residual activity (PAK1 (human)): 84.2%; residual activity (PDPK1 (human)): 83.3%; residual activity (PHKG1 (human)): 31.9%; residual activity (PKN2 (human)): 72.1%; residual activity (RPS6KA5 KD2 (human)): 17%; residual activity (SRC (human)): 92.6%; residual activity (TXK (human)): 107%
